Laboratory results taken from PMC7305796 (Antiviral research, 2019).

Key:
VEEV TC-83 [1] = experiment: microbe, parasite or virus in culture; assay type: cell-based; conditions: Venezuelan equine encephalitis virus, Vero 76, 48 h, read-out: VEEV EC50
VEEV TC-83 [2] = assay type: cell-based, Venezuelan equine encephalitis virus
[3] = tested on: VEEV Trinidad Donkey (TrD); set-up: species or system BALB/c mice; conditions: mouse, in vivo
[4] = mouse, microsomes
[5] = mouse
[6] = mouse; remark: listed apart in the source
VEEV TC-83 [7] = conditions: mouse, in vivo; cited from earlier work

CN1CCN(C)/C(=N/c2ccc([N+](=O)[O-])cc2C(=O)Nc2ccccc2)C1 [ML336, (E)-2-((1,4-dimethylpiperazin-2-ylidene)amino)-5-nitro-N-phenylbenzamide]
EC50 (VEEV TC-83 [1]): 32 ± 5 nM | VEEV log titer reduction (VEEV TC-83 [2]): 7.0 ± 0.4 log | protection of mice (survival) [3]: 100% | Microsomal stability, % parent after 1h [4]: 42.9% | Plasma stability, % parent after 3h [5]: 65.4% | plasma protein binding, % bound at 1 μM [6]: 85.0 / 77.0% | plasma protein binding, % bound at 10 μM [6]: 85.0 / 77.0% | survival rate (VEEV TC-83 [7]): 71%
